Assay results from ChEMBL document CHEMBL3875145, “Highly potent anti-leishmanial derivatives of hederagenin, a triperpenoid from Sapindus saponaria L” (Eur J Med Chem, 2016).

System: Leishmania infantum
Assay: Antiparasitic activity against Leishmania infantum MHOM/BR/70/BH46 promastigotes infected in dog DH82 cells at 1000 uM after 48 hrs by ELISA method
Format: functional
Settings: MHOM/BR/70/BH46, DH82, 48 h

## CC1(C)CC[C@]2(C(=O)OCc3ccccc3)CC[C@]3(C)C(=CC[C@@H]4[C@@]5(C)CC[C@H](O)[C@@](C)(CO)[C@@H]5CC[C@]43C)[C@@H]2C1
  inhibition at 1000 µM: 30.2%

## CC1(C)CC[C@]2(C(=O)OCc3ccccc3[N+](=O)[O-])CC[C@]3(C)C(=CC[C@@H]4[C@@]5(C)CC[C@H](O)[C@@](C)(CO)[C@@H]5CC[C@]43C)[C@@H]2C1
  inhibition at 1000 µM: 71.7%

## CC1(C)CC[C@]2(C(=O)OCc3ccccc3Br)CC[C@]3(C)C(=CC[C@@H]4[C@@]5(C)CC[C@H](O)[C@@](C)(CO)[C@@H]5CC[C@]43C)[C@@H]2C1
  inhibition at 1000 µM: 40%

## CC1(C)CC[C@]2(C(=O)OCc3ccccc3F)CC[C@]3(C)C(=CC[C@@H]4[C@@]5(C)CC[C@H](O)[C@@](C)(CO)[C@@H]5CC[C@]43C)[C@@H]2C1
  inhibition at 1000 µM: 26%

## CC1(C)CC[C@]2(C(=O)OCc3ccc(F)cc3F)CC[C@]3(C)C(=CC[C@@H]4[C@@]5(C)CC[C@H](O)[C@@](C)(CO)[C@@H]5CC[C@]43C)[C@@H]2C1
  inhibition at 1000 µM: 16%

## CC1(C)CC[C@]2(C(=O)OCc3ccccc3Cl)CC[C@]3(C)C(=CC[C@@H]4[C@@]5(C)CC[C@H](O)[C@@](C)(CO)[C@@H]5CC[C@]43C)[C@@H]2C1
  inhibition at 1000 µM: 15.8%

## Cc1ccccc1COC(=O)[C@]12CCC(C)(C)C[C@H]1C1=CC[C@@H]3[C@@]4(C)CC[C@H](O)[C@@](C)(CO)[C@@H]4CC[C@@]3(C)[C@]1(C)CC2
  inhibition at 1000 µM: 39%

## CC1(C)CC[C@]2(C(=O)OCc3cccc(Cl)c3)CC[C@]3(C)C(=CC[C@@H]4[C@@]5(C)CC[C@H](O)[C@@](C)(CO)[C@@H]5CC[C@]43C)[C@@H]2C1
  inhibition at 1000 µM: 23%

## C#CCOC(=O)[C@]12CCC(C)(C)C[C@H]1C1=CC[C@@H]3[C@@]4(C)CC[C@H](O)[C@@](C)(CO)[C@@H]4CC[C@@]3(C)[C@]1(C)CC2
  inhibition at 1000 µM: 19%

## CC1(C)CC[C@]2(C(=O)OCc3ccc([N+](=O)[O-])cc3)CC[C@]3(C)C(=CC[C@@H]4[C@@]5(C)CC[C@H](O)[C@@](C)(CO)[C@@H]5CC[C@]43C)[C@@H]2C1
  inhibition at 1000 µM: 28%

## CC1(C)CC[C@]2(C(=O)OCc3ccc(Cl)cc3)CC[C@]3(C)C(=CC[C@@H]4[C@@]5(C)CC[C@H](O)[C@@](C)(CO)[C@@H]5CC[C@]43C)[C@@H]2C1
  inhibition at 1000 µM: 53%

## CC1(C)CC[C@]2(C(=O)OCc3cccc(Br)c3)CC[C@]3(C)C(=CC[C@@H]4[C@@]5(C)CC[C@H](O)[C@@](C)(CO)[C@@H]5CC[C@]43C)[C@@H]2C1
  inhibition at 1000 µM: 20%

## CC1(C)CC[C@]2(C(=O)NCCN3CCCCC3)CC[C@]3(C)C(=CC[C@@H]4[C@@]5(C)CC[C@H](O)[C@@](C)(CO)[C@@H]5CC[C@]43C)[C@@H]2C1
  inhibition at 1000 µM: 0%

## CC1(C)CC[C@]2(C(=O)NCCN3CCCC3)CC[C@]3(C)C(=CC[C@@H]4[C@@]5(C)CC[C@H](O)[C@@](C)(CO)[C@@H]5CC[C@]43C)[C@@H]2C1
  inhibition at 1000 µM: 0%

## CC1(C)CC[C@]2(C(=O)NCCN3CCOCC3)CC[C@]3(C)C(=CC[C@@H]4[C@@]5(C)CC[C@H](O)[C@@](C)(CO)[C@@H]5CC[C@]43C)[C@@H]2C1
  inhibition at 1000 µM: 7%

## CC1(C)CC[C@]2(C(=O)OCc3cn(Cc4c(Cl)cccc4Cl)nn3)CC[C@]3(C)C(=CC[C@@H]4[C@@]5(C)CC[C@H](O)[C@@](C)(CO)[C@@H]5CC[C@]43C)[C@@H]2C1
  inhibition at 1000 µM: 44.5%

## CC1(C)CC[C@]2(C(=O)NCc3cn(Cc4ccccc4F)nn3)CC[C@]3(C)C(=CC[C@@H]4[C@@]5(C)CC[C@H](O)[C@@](C)(CO)[C@@H]5CC[C@]43C)[C@@H]2C1
  inhibition at 1000 µM: 31%

## CC1(C)CC[C@]2(C(=O)NCc3cn(Cc4cccc(Br)c4)nn3)CC[C@]3(C)C(=CC[C@@H]4[C@@]5(C)CC[C@H](O)[C@@](C)(CO)[C@@H]5CC[C@]43C)[C@@H]2C1
  inhibition at 1000 µM: 33.3%

## CC1(C)CC[C@]2(C(=O)OCc3cn(Cc4ccccc4)nn3)CC[C@]3(C)C(=CC[C@@H]4[C@@]5(C)CC[C@H](O)[C@@](C)(CO)[C@@H]5CC[C@]43C)[C@@H]2C1
  inhibition at 1000 µM: 23.5%

## CC1(C)CC[C@]2(C(=O)OCc3cn(Cc4ccc(Br)cc4)nn3)CC[C@]3(C)C(=CC[C@@H]4[C@@]5(C)CC[C@H](O)[C@@](C)(CO)[C@@H]5CC[C@]43C)[C@@H]2C1
  inhibition at 1000 µM: 27.7%

## CC1(C)CC[C@]2(C(=O)OCc3cn(Cc4ccc([N+](=O)[O-])cc4)nn3)CC[C@]3(C)C(=CC[C@@H]4[C@@]5(C)CC[C@H](O)[C@@](C)(CO)[C@@H]5CC[C@]43C)[C@@H]2C1
  inhibition at 1000 µM: 17%

## CC1(C)CC[C@]2(C(=O)NCc3cn(Cc4cccc([N+](=O)[O-])c4)nn3)CC[C@]3(C)C(=CC[C@@H]4[C@@]5(C)CC[C@H](O)[C@@](C)(CO)[C@@H]5CC[C@]43C)[C@@H]2C1
  inhibition at 1000 µM: 25.4%

## CC1(C)CC[C@]2(C(=O)NCc3cn(Cc4ccc([N+](=O)[O-])cc4)nn3)CC[C@]3(C)C(=CC[C@@H]4[C@@]5(C)CC[C@H](O)[C@@](C)(CO)[C@@H]5CC[C@]43C)[C@@H]2C1
  inhibition at 1000 µM: 14%

## CC1(C)CC[C@]2(C(=O)NCc3cn(Cc4ccc(F)cc4)nn3)CC[C@]3(C)C(=CC[C@@H]4[C@@]5(C)CC[C@H](O)[C@@](C)(CO)[C@@H]5CC[C@]43C)[C@@H]2C1
  inhibition at 1000 µM: 10.2%

## CC1(C)CC[C@]2(C(=O)OCc3cn(Cc4ccccc4Cl)nn3)CC[C@]3(C)C(=CC[C@@H]4[C@@]5(C)CC[C@H](O)[C@@](C)(CO)[C@@H]5CC[C@]43C)[C@@H]2C1
  inhibition at 1000 µM: 0%

## CC1(C)CC[C@]2(C(=O)NCc3cn(Cc4cccc(Cl)c4)nn3)CC[C@]3(C)C(=CC[C@@H]4[C@@]5(C)CC[C@H](O)[C@@](C)(CO)[C@@H]5CC[C@]43C)[C@@H]2C1
  inhibition at 1000 µM: 31.1%

## CC1(C)CC[C@]2(C(=O)OCc3cn(Cc4c(F)cccc4F)nn3)CC[C@]3(C)C(=CC[C@@H]4[C@@]5(C)CC[C@H](O)[C@@](C)(CO)[C@@H]5CC[C@]43C)[C@@H]2C1
  inhibition at 1000 µM: 34%

## CC1(C)CC[C@]2(C(=O)NCc3cn(Cc4ccccc4)nn3)CC[C@]3(C)C(=CC[C@@H]4[C@@]5(C)CC[C@H](O)[C@@](C)(CO)[C@@H]5CC[C@]43C)[C@@H]2C1
  inhibition at 1000 µM: 11%

## CC1(C)CC[C@]2(C(=O)OCc3cn(Cc4cccc([N+](=O)[O-])c4)nn3)CC[C@]3(C)C(=CC[C@@H]4[C@@]5(C)CC[C@H](O)[C@@](C)(CO)[C@@H]5CC[C@]43C)[C@@H]2C1
  inhibition at 1000 µM: 26.3%

## CC1(C)CC[C@]2(C(=O)OCc3cn(Cc4ccc(Cl)cc4)nn3)CC[C@]3(C)C(=CC[C@@H]4[C@@]5(C)CC[C@H](O)[C@@](C)(CO)[C@@H]5CC[C@]43C)[C@@H]2C1
  inhibition at 1000 µM: 35%

## CC1(C)CC[C@]2(C(=O)NCc3cn(Cc4ccc(Br)cc4)nn3)CC[C@]3(C)C(=CC[C@@H]4[C@@]5(C)CC[C@H](O)[C@@](C)(CO)[C@@H]5CC[C@]43C)[C@@H]2C1
  inhibition at 1000 µM: 27%

## COC(=O)C(NC(=O)[C@]12CCC(C)(C)C[C@H]1C1=CC[C@@H]3[C@@]4(C)CC[C@H](O)[C@@](C)(CO)[C@@H]4CC[C@@]3(C)[C@]1(C)CC2)c1ccccc1 (stereo partly drawn)
  inhibition at 1000 µM: 60%

## CC1(C)CC[C@]2(C(=O)NC(Cc3c[nH]c4ccccc34)C(=O)O)CC[C@]3(C)C(=CC[C@@H]4[C@@]5(C)CC[C@H](O)[C@@](C)(CO)[C@@H]5CC[C@]43C)[C@@H]2C1 (stereo partly drawn)
  inhibition at 1000 µM: 50%
